# Results reported in ChEMBL document CHEMBL3286253, “Design, synthesis, and structure-activity relationship studies of novel thioether pleuromutilin derivatives as potent antibacterial agents” (J Med Chem, 2014).
# Key:
# [1] = Tmax in Sprague-Dawley rat at 10 mg/kg, iv; type: ADME, organism-based; parameters: dose 10 mg/kg, route intravenous; conditions: in vivo
# [2] = Plasma concentration in Sprague-Dawley rat at 10 mg/kg, iv after 15 mins; type: ADME, organism-based; parameters: dose 10 mg/kg, route intravenous
# Staphylococcus aureus [3] = assay: Antibacterial activity against clinical isolate of methicillin-sensitive Staphylococcus aureus infected in iv dosed mouse administered 1 hr after infection for 4 days; type: functional
# [4] = Chemical stability of solid state of the compound assessed as compound remaining after 100 days by UV/HPLC analysis; type: physicochemical; conditions: read-out: Stability
# [5] = Chemical stability of aqueous solution state of the compound assessed as compound remaining after 24 hrs by UV/HPLC analysis; type: physicochemical; conditions: read-out: Stability
# [6] = Chemical stability of solid state of the compound assessed as compound remaining after 24 hrs by UV/HPLC analysis; type: physicochemical; conditions: read-out: Stability
# [7] = Clearance in Sprague-Dawley rat at 10 mg/kg, iv; type: ADME, organism-based; parameters: dose 10 mg/kg, route intravenous; conditions: in vivo
# [8] = Elimination half life in Sprague-Dawley rat at 10 mg/kg, iv; type: ADME, organism-based; parameters: dose 10 mg/kg, route intravenous; conditions: in vivo, read-out: beta t1/2 (converted)
# [9] = Chemical stability of aqueous solution state of the compound assessed as compound remaining after 14 days by UV/HPLC analysis; type: physicochemical; conditions: read-out: Stability
# [10] = Volume of distribution at steady state in Sprague-Dawley rat at 10 mg/kg, iv; type: ADME, organism-based; parameters: dose 10 mg/kg, route intravenous; conditions: in vivo, read-out: Vdss
# [11] = Mean residence time in Sprague-Dawley rat at 10 mg/kg, iv; type: ADME, organism-based; parameters: dose 10 mg/kg, route intravenous; conditions: in vivo
# Staphylococcus aureus [12] = assay: Antibacterial activity against clinical isolate of methicillin-sensitive Staphylococcus aureus infected in iv dosed mouse assessed as host survival administered 1 hr after infection for 4 days; type: functional
# [13] = AUC (0 to t) in Sprague-Dawley rat at 10 mg/kg, iv; type: ADME, organism-based; parameters: dose 10 mg/kg, route intravenous; conditions: plasma
# Rattus norvegicus = assay: Tmax in Sprague-Dawley rat assessed as 14-O-(((5-hydroxymethylpyridin-3-yl)sulfanyl)acetyl)mutilin level at 10 mg/kg, iv; type: ADME, organism-based; parameters: dose 10 mg/kg, route intravenous; conditions: in vivo
# [14] = Aqueous solubility of the compound in water at pH 7.4; conditions: water
# Staphylococcus aureus [15] = assay: Antibacterial activity against methicillin-resistant Staphylococcus aureus after 16 hrs by agar dilution method; type: functional
# [16] = Clearance in Sprague-Dawley rat at 2 mg/kg, iv administered as cassette dosing; type: ADME, organism-based; parameters: dose 2 mg/kg, route intravenous; conditions: in vivo
# Staphylococcus aureus [17] = assay: Antibacterial activity against of methicillin-resistant Staphylococcus aureus ATCC 33591 infected in iv dosed neutropenic mouse administered 1 hr after infection measured after 24 hrs; type: functional
# [18] = test system: Staphylococcus epidermidis; assay: Antibacterial activity against methicillin-sensitive Staphylococcus epidermidis after 16 hrs by agar dilution method; type: functional
# [19] = Elimination half life in Sprague-Dawley rat at 2 mg/kg, iv administered as cassette dosing; type: ADME, organism-based; parameters: dose 2 mg/kg, route intravenous; conditions: in vivo, read-out: beta t1/2 (converted)
# [20] = Volume of distribution at steady state in Sprague-Dawley rat at 2 mg/kg, iv administered as cassette dosing; type: ADME, organism-based; parameters: dose 2 mg/kg, route intravenous; conditions: in vivo, read-out: Vdss
# Staphylococcus aureus [21] = assay: Antibacterial activity against Staphylococcus aureus […] after 16 hrs by agar dilution method; type: functional
# [22] = test system: Staphylococcus epidermidis; assay: Antibacterial activity against methicillin-resistant Staphylococcus epidermidis after 16 hrs by agar dilution method; type: functional
# Cytochrome P450 3A4 [23] = target: T1, Cytochrome P450 3A4 (Homo sapiens, UniProt P08684); assay: Inhibition of CYP3A4 in human liver microsomes using testosterone as substrate after 15 mins by LC/MS/MS analysis
# T1 sequence (P08684 whole entry): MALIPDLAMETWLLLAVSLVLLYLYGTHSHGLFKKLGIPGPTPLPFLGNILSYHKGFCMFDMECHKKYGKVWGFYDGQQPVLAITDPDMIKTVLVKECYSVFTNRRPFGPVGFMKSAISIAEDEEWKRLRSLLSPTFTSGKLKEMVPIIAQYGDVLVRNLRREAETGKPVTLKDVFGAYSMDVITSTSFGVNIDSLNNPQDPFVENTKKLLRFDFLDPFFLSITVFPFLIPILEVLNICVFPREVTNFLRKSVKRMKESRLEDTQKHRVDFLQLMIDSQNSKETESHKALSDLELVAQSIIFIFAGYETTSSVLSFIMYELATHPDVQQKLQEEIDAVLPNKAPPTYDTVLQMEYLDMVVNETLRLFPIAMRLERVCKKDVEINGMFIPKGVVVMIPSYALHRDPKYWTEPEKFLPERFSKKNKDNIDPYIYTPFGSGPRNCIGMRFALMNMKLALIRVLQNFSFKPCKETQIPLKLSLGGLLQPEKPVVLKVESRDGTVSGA
# Cytochrome P450 1A2 = target: T2, Cytochrome P450 1A2 (Homo sapiens, UniProt P05177); assay: Inhibition of CYP1A2 in human liver microsomes using phenacetin as substrate after 15 mins by LC/MS/MS analysis
# T2 sequence (P05177 whole entry): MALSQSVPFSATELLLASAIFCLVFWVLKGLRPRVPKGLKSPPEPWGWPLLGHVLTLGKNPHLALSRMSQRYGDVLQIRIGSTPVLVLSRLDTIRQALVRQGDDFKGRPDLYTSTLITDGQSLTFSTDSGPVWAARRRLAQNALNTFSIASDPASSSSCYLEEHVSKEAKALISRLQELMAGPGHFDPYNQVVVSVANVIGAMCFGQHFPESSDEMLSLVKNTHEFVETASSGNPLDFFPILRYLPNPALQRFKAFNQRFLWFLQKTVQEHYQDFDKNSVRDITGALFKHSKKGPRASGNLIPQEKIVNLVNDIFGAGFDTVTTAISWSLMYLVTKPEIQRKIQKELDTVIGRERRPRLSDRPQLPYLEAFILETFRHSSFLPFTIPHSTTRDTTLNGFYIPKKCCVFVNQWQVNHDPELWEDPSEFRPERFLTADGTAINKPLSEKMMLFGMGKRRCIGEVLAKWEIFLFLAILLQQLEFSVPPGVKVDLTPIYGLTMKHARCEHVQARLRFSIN
# Streptococcus pneumoniae = assay: Antibacterial activity against penicillin-resistant Streptococcus pneumoniae after 16 hrs by agar dilution method; type: functional
# [24] = AUC (0 to t) in Sprague-Dawley rat at 2 mg/kg, iv administered as cassette dosing; type: ADME, organism-based; parameters: dose 2 mg/kg, route intravenous; conditions: plasma
# Staphylococcus aureus [25] = assay: Antibacterial activity against methicillin-sensitive Staphylococcus aureus after 16 hrs by agar dilution method; type: functional
# Cytochrome P450 2C19 = Cytochrome P450 2C19 (Homo sapiens, UniProt P33261); assay: Inhibition of CYP2C19 in human liver microsomes using mephenytoin as substrate after 15 mins by LC/MS/MS analysis
# Sequence of Cytochrome P450 2C19 (P33261 whole entry): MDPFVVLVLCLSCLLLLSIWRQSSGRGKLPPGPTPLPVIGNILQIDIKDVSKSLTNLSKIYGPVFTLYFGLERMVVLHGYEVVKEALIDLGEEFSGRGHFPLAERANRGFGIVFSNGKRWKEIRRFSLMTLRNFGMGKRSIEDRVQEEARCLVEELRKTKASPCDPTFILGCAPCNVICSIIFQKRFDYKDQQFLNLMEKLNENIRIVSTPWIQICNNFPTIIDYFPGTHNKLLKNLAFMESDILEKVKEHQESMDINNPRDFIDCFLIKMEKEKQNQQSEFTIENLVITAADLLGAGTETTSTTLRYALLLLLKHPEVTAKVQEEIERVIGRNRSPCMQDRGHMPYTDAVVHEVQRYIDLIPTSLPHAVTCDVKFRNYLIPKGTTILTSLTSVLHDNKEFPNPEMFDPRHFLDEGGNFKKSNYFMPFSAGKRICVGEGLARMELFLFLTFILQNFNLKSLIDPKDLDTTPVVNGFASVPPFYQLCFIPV
# Staphylococcus aureus [26] = assay: Antibacterial activity against of methicillin-sensitive Staphylococcus aureus ATCC 19636 infected in iv dosed mouse administered 1 hr after infection measured after 48 hrs; type: functional
# Cytochrome P450 2D6 = Cytochrome P450 2D6 (Homo sapiens, UniProt P10635); assay: Inhibition of CYP2D6 in human liver microsomes using dextromethorphan as substrate after 15 mins by LC/MS/MS analysis
# Sequence of Cytochrome P450 2D6 (P10635 whole entry): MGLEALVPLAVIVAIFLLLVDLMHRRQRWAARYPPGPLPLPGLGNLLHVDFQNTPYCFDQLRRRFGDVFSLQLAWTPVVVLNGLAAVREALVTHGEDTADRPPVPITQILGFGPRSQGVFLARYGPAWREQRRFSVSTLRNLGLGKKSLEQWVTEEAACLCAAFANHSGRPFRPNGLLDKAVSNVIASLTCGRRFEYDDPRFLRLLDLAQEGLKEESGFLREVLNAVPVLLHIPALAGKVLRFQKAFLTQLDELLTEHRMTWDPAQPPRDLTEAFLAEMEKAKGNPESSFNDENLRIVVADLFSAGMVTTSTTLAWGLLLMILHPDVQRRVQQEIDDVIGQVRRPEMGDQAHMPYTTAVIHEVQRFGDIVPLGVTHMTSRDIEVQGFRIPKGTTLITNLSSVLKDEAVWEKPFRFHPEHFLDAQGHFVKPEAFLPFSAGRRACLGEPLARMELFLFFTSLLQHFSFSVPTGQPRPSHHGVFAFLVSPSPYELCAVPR
# Staphylococcus aureus [27] = assay: Antibacterial activity against of methicillin-sensitive Staphylococcus aureus ATCC 19636 infected in iv dosed mouse assessed as host survival administered 1 hr after infection measured after 48 hrs; type: functional; conditions: ATCC 19636, iv
# Cytochrome P450 3A4 [28] = target: T1, Cytochrome P450 3A4; assay: Inhibition of CYP3A4 in human liver microsomes using midazolam as substrate after 15 mins by LC/MS/MS analysis
# Cytochrome P450 2C9 = Cytochrome P450 2C9 (Homo sapiens, UniProt P11712); assay: Inhibition of CYP2C9 in human liver microsomes using tolbutamide as substrate after 15 mins by LC/MS/MS analysis
# Sequence of Cytochrome P450 2C9 (P11712 whole entry): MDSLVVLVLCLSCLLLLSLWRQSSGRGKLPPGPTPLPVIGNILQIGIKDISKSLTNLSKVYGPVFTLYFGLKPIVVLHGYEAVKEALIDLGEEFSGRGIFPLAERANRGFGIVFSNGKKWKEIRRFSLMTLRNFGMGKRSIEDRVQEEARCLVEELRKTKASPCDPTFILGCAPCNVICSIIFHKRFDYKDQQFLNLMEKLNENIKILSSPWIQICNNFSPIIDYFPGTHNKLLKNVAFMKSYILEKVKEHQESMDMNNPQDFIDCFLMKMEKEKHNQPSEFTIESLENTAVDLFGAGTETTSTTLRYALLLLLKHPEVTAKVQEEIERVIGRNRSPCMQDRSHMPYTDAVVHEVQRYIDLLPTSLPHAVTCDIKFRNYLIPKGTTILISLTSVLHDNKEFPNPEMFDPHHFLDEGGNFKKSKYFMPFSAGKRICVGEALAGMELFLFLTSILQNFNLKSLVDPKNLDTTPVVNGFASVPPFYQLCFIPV
# Staphylococcus aureus [29] = assay: Antibacterial activity against of methicillin-resistant Staphylococcus aureus ATCC 33591 infected in iv dosed neutropenic mouse assessed as host survival administered 1 hr after infection measured after 24 hrs; type: functional; conditions: ATCC 33591, iv
# [30] = Mean residence time in Sprague-Dawley rat at 2 mg/kg, iv administered as cassette dosing; type: ADME, organism-based; parameters: dose 2 mg/kg, route intravenous; conditions: in vivo
smiles,measurement,setting,value
C=C[C@]1(C)C[C@@H](OC(=O)CSc2cncc(COP(=O)([O-])[O-])c2)[C@]2(C)[C@H](C)CC[C@]3(CCC(=O)[C@H]32)[C@@H](C)[C@@H]1O.[Na+].[Na+],Tmax,[1],4.8 min
same,concentration at […],[2],3 ng/mL
same,MIC,Staphylococcus aureus [3],> 32 µg/mL
same,remaining at 2400 h,[4],98.1%
same,remaining at 24 h,[5],98.1%
same,remaining at 24 h,[6],98.1%
same,clearance,[7],83.3 mL/min/kg
same,half-life,[8],382 min
same,remaining at 336 h,[9],98.1%
same,Vd,[10],3.26 L/kg
same,MRT,[11],39 min
same,ED50,Staphylococcus aureus [12],29.2 mg/kg
same,AUC(0-t),[13],1580 ng·h/mL
same,Tmax,Rattus norvegicus,< 5 min
same,solubility,[14],106 mg/mL
C=C[C@]1(C)C[C@@H](OC(=O)CSc2cncc(NC(=O)CN3CCC(O)CC3)c2)[C@]2(C)[C@H](C)CC[C@]3(CCC(=O)[C@H]32)[C@@H](C)[C@@H]1O,MIC,Staphylococcus aureus [15],0.063 µg/mL
same,clearance,[16],53.3 mL/min/kg
same,MIC,Staphylococcus aureus [3],0.063 µg/mL
same,MIC,Staphylococcus aureus [17],0.125 µg/mL
same,MIC,[18],0.125 µg/mL
same,half-life,[19],40.2 min
same,Vd,[20],1.9 L/kg
same,MIC,Staphylococcus aureus [21],0.031 µg/mL
same,MIC,[22],0.063 µg/mL
same,IC50,Cytochrome P450 3A4 [23],1.63 µM
same,IC50,Cytochrome P450 1A2,> 25 µM
same,MIC,Streptococcus pneumoniae,0.063 µg/mL
same,AUC(0-t),[24],650 ng·h/mL
same,MIC,Staphylococcus aureus [25],0.125 µg/mL
same,IC50,Cytochrome P450 2C19,> 25 µM
same,MIC,Staphylococcus aureus [26],0.063 µg/mL
same,ED50,Staphylococcus aureus [12],16.7 mg/kg
same,IC50,Cytochrome P450 2D6,11.2 µM
same,ED50,Staphylococcus aureus [27],9.02 mg/kg
same,IC50,Cytochrome P450 3A4 [28],1.89 µM
same,IC50,Cytochrome P450 2C9,> 25 µM
same,ED50,Staphylococcus aureus [29],3.13 mg/kg
same,MRT,[30],36.6 min
CC(=O)NC[C@H]1CN(c2ccc(N3CCOCC3)c(F)c2)C(=O)O1 [LINEZOLID],MIC,Staphylococcus aureus [3],1 µg/mL
same,MIC,Staphylococcus aureus [17],1 µg/mL
same,MIC,Staphylococcus aureus [26],1 µg/mL
same,ED50,Staphylococcus aureus [12],15.6 mg/kg
same,ED50,Staphylococcus aureus [27],7.89 mg/kg
same,ED50,Staphylococcus aureus [29],9.39 mg/kg
